Data from patent publication US7459477B2, “Substituted N-phenyl-phenoxy nicotinic acid-(thio)amides and their use as herbicides” (Nihon Nohyaku, Co., Ltd., priority 2001, dated 2008).

Assays:
Format in all cases: in vivo
[1] = tested on: Green Peach Aphid (Myzus Persicae); assay: Insecticidal effect on green peach aphid (Test Example 4); conditions: 500 ppm; stems and leaves of Chinese cabbage sprayed; six days after the spraying; greenhouse
Excerpt: Insecticidal Effect on Green Peach Aphid (Myzus Persicae)
A Chinese cabbage plant was planted in each of plastic pots with a diameter of 8 cm and a height of 8 cm, and green peach aphids were propagated on the plant. Then, the stems and leaves were sufficiently sprayed with a liquid chemical prepared by diluting a preparation containing each compound listed in Tables 1 to 4 as an active ingredient to adjust the concentration to 500 ppm. After air-drying, the pots were allowed to stand in a greenhouse. Six days after the spraying, green peach aphids parasitic on each Chinese cabbage plant were counted and the control efficacy was calculated, whereby the […] effect was judged according to the criterion shown below. Control efficacy (%)=100−[(T×Ca)/(Ta×C)]×100 • Ta: number of parasites before spraying in treated group, • T: number of parasites after spraying in treated group,
Ca: number of parasites before spraying in untreated group, • […]: number of parasites after spraying in untreated group. Criterion for Judgment: • A: control efficacy 100% • B: control efficacy 99 to 90% • C: control efficacy 89 to 80% • D: control efficacy 79 to 50%

[2] = tested on: Diamond Back Moth (Plutella xylostella); assay: Insecticidal effect on diamond back moth (Test Example 1); conditions: 500 ppm; Chinese cabbage seedling with eggs immersed about 30 seconds; six days after the immersion; 25° C.
Excerpt: Insecticidal Effect on Diamond Back Moth (Plutella xylostella)
Adult diamond back moths were released and allowed to oviposit on a Chinese cabbage seedling. Two days after the release, the seedling having the eggs deposited thereon was immersed for about 30 seconds in a liquid chemical prepared by diluting a preparation containing each compound listed in Tables 1 to 4 as an active ingredient to adjust the concentration to 500 ppm. After air-dryness, it was allowed to stand in a room thermostatted at 25° C. Six days after the immersion, the hatched insects were counted. The mortality was calculated according to the following equation and the insecticidal effect was judged according to the criterion shown below. The test was carried out with triplicate groups of 10 insects.

[3] = tested on: Two-Spotted Spider Mite (Tetranychus Urticae); assay: Acaricidal effect on two-spotted spider mite (Test Example 3); conditions: 500 ppm; kidney bean leaf disc with female adults sprayed; two days after the treatment; 25° C.
Protocol: Acaricidal Effect on Two-Spotted Spider Mite (Tetranychus Urticae)
A leaf disc with a diameter of 2 cm was made of a kidney bean leaf, placed on wet filter paper, inoculated with female adult two-spotted spider mites, and then uniformly sprayed, on a turntable, with 50 ml of a liquid chemical prepared by diluting a preparation containing each compound listed in Tables 1 to 4 as an active ingredient to adjust the concentration to 500 ppm. After the spraying, the leaf disc was allowed to stand in a room thermostated at 25° C. Two days after the treatment with the preparation, the dead insects were counted and the acaricidal effect was judged according to the criterion shown in Test Example 1. The test was carried out with two replications of 10 insects.

Row | Compound | control efficacy rating [1] | insecticidal effect (mortality rating) [2] | acaricidal effect (mortality rating) [3]
1 | CC(C)CC(C)c1cc(C(C(F)(F)F)C(F)(F)F)ccc1NC(=O)c1cccs1 (stereo not shown) [3-27] | B or higher |  | 
2 | Cc1nn(C)c(Cl)c1C(=O)Nc1ccc(C(C(F)(F)F)C(F)(F)F)c2ccccc12 [1-17] |  | B or higher | 
3 | CC(C)CC(C)c1cc(C(C(F)(F)F)C(F)(F)F)ccc1NC(=O)c1cn(C)nc1Br (stereo not shown) [1-39] |  |  | B or higher
4 | CCCC(C)c1cc(C(OC)(C(F)(F)F)C(F)(F)F)ccc1NC(=O)c1c(C)nn(C)c1C (stereo not shown) [1-26] |  | B or higher | B or higher
5 | CC(C)CC(C)c1cc(C(C(F)(F)F)C(F)(F)F)ccc1NC(=O)c1ncc(Cl)cc1Cl (stereo not shown) [3-2] |  | B or higher | 
6 | CCn1ncc(C(=O)Nc2ccc(C(C(F)(F)F)C(F)(F)F)cc2C(C)CC(C)C)c1Cl (stereo not shown) [1-51] |  |  | B or higher
7 | CCCC(C)c1cc(C(C(F)(F)F)C(F)(F)F)ccc1NC(=O)c1c(C)nn(C)c1Cl (stereo not shown) [1-22] |  |  | B or higher
8 | CC(C)CC(C)c1cc(C(C(F)(F)F)C(F)(F)F)ccc1NC(=O)c1cscc1Br (stereo not shown) [3-21] |  |  | B or higher
9 | CC(C)CC(C)c1cc(C(F)(C(F)(F)F)C(F)(F)F)ccc1NC(=O)c1cn(C)nc1C(F)(F)F (stereo not shown) [1-28] |  | B or higher | 
10 | COC(c1ccc(NC(=O)c2c(C)nn(C)c2C)c(C(C)CC(C)C)c1)(C(F)(F)F)C(F)(F)F (stereo not shown) [Compound No. 1-108, N-{2-(1,3-dimethylbutyl)-4-[1-methoxy-2,2,2-trifluoro-1-(trifluoromethyl)ethyl]-phenyl}-1,3,5-trimethylpyrazole-4-carboxamide] |  | B or higher | 
11 | Cc1nn(C)c(C)c1C(=O)Nc1ccc(C(C(F)(F)F)C(F)(F)F)c(C)c1C [1-164] |  | B or higher | 
12 | CCn1nc(C)c(C(=O)Nc2ccc(C(C(F)(F)F)C(F)(F)F)cc2C(C)CC(C)C)c1Cl (stereo not shown) [1-78] |  |  | B or higher
13 | CCOC(c1ccc(NC(=O)c2c(C)nn(C)c2Cl)c(C(C)CC(C)C)c1)(C(F)(F)F)C(F)(F)F (stereo not shown) [1-73] |  | B or higher | 
14 | Cc1nn(C)cc1C(=O)Nc1ccc(C(C(F)(F)F)C(F)(F)F)cc1C(C)CC(C)C (stereo not shown) [1-34] |  |  | B or higher
15 | CC(C)CC(C)c1cc(C(C(F)(F)F)C(F)(F)F)ccc1NC(=O)c1cn(C(F)F)nc1C(F)(F)F (stereo not shown) [1-33] |  | B or higher | 
16 | CC(C)CC(C)c1cc(C(C(F)(F)F)C(F)(F)F)ccc1NC(=O)c1cn(C)nc1I (stereo not shown) [1-40] |  |  | B or higher
17 | Cc1c(Cl)c(C(=O)Nc2ccc(C(C(F)(F)F)C(F)(F)F)cc2C(C)CC(C)C)nn1C (stereo not shown) [4-1] | B or higher | B or higher | 
18 | Cc1nn(C)c(Cl)c1C(=O)Nc1ccc(C(F)(C(F)(F)F)C(F)(F)F)cc1C(C)CCC(C)C (stereo not shown) [1-145] |  | B or higher | 
19 | CC(C)CC(C)c1cc(C(C(F)(F)F)C(F)(F)F)ccc1NC(=O)c1cnccc1C(F)(F)F (stereo not shown) [3-3] |  | B or higher | 
20 | CCCc1cc(C(C(F)(F)F)C(F)(F)F)ccc1NC(=O)c1c(C)nn(C)c1Cl [1-4] | B or higher | B or higher | 
21 | Cc1nn(C)c(Br)c1C(=O)Nc1ccc(C(C(F)(F)F)C(F)(F)F)cc1C(C)CC(C)C (stereo not shown) [1-81] | B or higher |  | B or higher
22 | Cc1nn(C)c(I)c1C(=O)Nc1ccc(C(C(F)(F)F)C(F)(F)F)cc1C(C)CC(C)C (stereo not shown) [1-87] | B or higher |  | 
23 | CC(C)CC(C)c1cc(C(C(F)(F)F)C(F)(F)F)ccc1NC(=O)c1cnn(C)c1I (stereo not shown) [1-56] |  | B or higher | 
24 | Cc1nn(C)c(C(=O)Nc2ccc(C(C(F)(F)F)C(F)(F)F)cc2C(C)CC(C)C)c1Br (stereo not shown) [4-5] |  | B or higher | 

Row | Compound | control efficacy rating [1] | insecticidal effect (mortality rating) [2] | acaricidal effect (mortality rating) [3]
25 | CCn1ncc(C(=O)Nc2ccc(C(C(F)(F)F)C(F)(F)F)cc2C(C)CC(C)C)c1I (stereo not shown) [1-57] |  | B or higher | 
26 | Cc1nn(C)c(C)c1C(=O)Nc1ccc(C(F)(C(F)(F)F)C(F)(F)F)c(C)c1C [1-163] |  | B or higher | 
27 | Cc1nn(C)c(Cl)c1C(=O)Nc1ccc(C(C(F)(F)F)C(F)(F)F)c2c1CCCC2 [Compound No. 1-14] |  | B or higher | 
28 | CC(C)CC(C)c1cc(C(C(F)(F)F)C(F)(F)F)ccc1NC(=O)c1cccnc1Cl (stereo not shown) [3-4] |  | B or higher | 
29 | COC(c1ccc(NC(=O)c2c(C)nn(C)c2Br)c(C(C)CC(C)C)c1)(C(F)(F)F)C(F)(F)F (stereo not shown) [1-82] |  | B or higher | B or higher
30 | CCc1nn(C)cc1C(=O)Nc1ccc(C(C(F)(F)F)C(F)(F)F)cc1C(C)CC(C)C (stereo not shown) [1-35] | B or higher | B or higher | 
31 | Cc1noc(C)c1C(=O)Nc1ccc(C(C(F)(F)F)C(F)(F)F)cc1C(C)CC(C)C (stereo not shown) [3-34] | B or higher |  | 
32 | CCCn1nc(C)c(C(=O)Nc2ccc(C(C(F)(F)F)C(F)(F)F)cc2C(C)CC(C)C)c1C (stereo not shown) [1-119] |  |  | B or higher
33 | Cc1nn(C)c(Cl)c1C(=O)Nc1ccc(C(F)(C(F)(F)F)C(F)(F)F)cc1C(C)C(C)C (stereo not shown) [1-21] |  | B or higher | 
34 | CCCC(C)c1cc(C(C(F)(F)F)C(F)(F)F)ccc1NC(=O)c1c(C)nn(C)c1C (stereo not shown) [1-25] | B or higher |  | B or higher
35 | Cc1coc(C)c1C(=O)Nc1ccc(C(C(F)(F)F)C(F)(F)F)cc1C(C)CC(C)C (stereo not shown) [3-13] | B or higher |  | B or higher
36 | Cc1nnsc1C(=O)Nc1ccc(C(F)(C(F)(F)F)C(F)(F)F)cc1C(C)CC(C)C (stereo not shown) [3-10] |  | B or higher | 
37 | Cc1nn(C)c(Cl)c1C(=O)Nc1ccc(C(C(F)(F)F)C(F)(F)F)cc1-c1ccccc1 [1-20] |  | B or higher | 
38 | CCc1nn(C)c(Cl)c1C(=O)Nc1ccc(C(C(F)(F)F)C(F)(F)F)cc1C(C)CC(C)C (stereo not shown) [1-132] |  | B or higher | B or higher
39 | Cc1nn(C)c(Cl)c1C(=O)Nc1ccc(C(C(F)(F)F)C(F)(F)F)cc1C(C)(C)C [Compound No. 1-10] |  | B or higher | 
40 | CCCCC(C)c1cc(C(C(F)(F)F)C(F)(F)F)ccc1NC(=O)c1c(C)nn(C)c1Cl (stereo not shown) [1-143] |  | B or higher | B or higher
41 | CSc1nn(C)cc1C(=O)Nc1ccc(C(C(F)(F)F)C(F)(F)F)cc1C(C)CC(C)C (stereo not shown) [1-41] | B or higher | B or higher | 
42 | COC(c1ccc(NC(=O)c2c(C(F)(F)F)nn(C)c2Cl)c(C(C)CC(C)C)c1)(C(F)(F)F)C(F)(F)F (stereo not shown) [1-104] |  |  | B or higher
43 | Cc1nn(C)c(Cl)c1C(=O)Nc1ccc(C(F)(C(F)(F)F)C(F)(F)F)cc1C(C)CC(C)C (stereo not shown) [1-70] |  | B or higher | 
44 | CCC(C)c1cc(C(C(F)(F)F)C(F)(F)F)ccc1NC(=O)c1c(C)nn(C)c1Cl (stereo not shown) [1-8] | B or higher |  | 
45 | Cc1nn(C)c(C(=O)Nc2ccc(C(C(F)(F)F)C(F)(F)F)cc2C(C)CC(C)C)c1Cl (stereo not shown) [4-4] |  | B or higher | 
46 | CC(C)CC(C)c1cc(C(C(F)(F)F)C(F)(F)F)ccc1NC(=O)c1cnn(C)c1S(C)(=O)=O (stereo not shown) [1-48] |  | B or higher | 
47 | Cc1nn(C)c(C)c1C(=O)Nc1ccc(C(C(F)(F)F)C(F)(F)F)cc1C(C)CC(C)C (stereo not shown) [1-107] |  | B or higher | 
